Measured values from patent US12064448B2, “Methods for reducing bioavailability and absorption of ingested substances” (Nanyang Technological University, priority 2017, dated 2024).

Tested on: pancreatic lipase
Assay: 3-phase simulated digestion, pH-stat titration of fatty acids released in small intestinal phase
Format: biochemical
Settings: heavy cream, 13.3% fat, orlistat 4.8 mg/ml
Description: Corn oils was purchased from Sigma, Inc. These aforementioned fat food models were combined with nanocellulose or other control fibers including psyllium husk (Sigma) and wheat dextrin (Sigma) or the lipase inhibitor orlistat (Sigma). To combine test materials with cream, water, cream and the test material were combined to achieve the desired final concentrations of each, and the mixture was vortexed for 30 seconds. To combine test fibers with corn oil, the oil and water components were first combined and homogenized at high speed for 1 minute. Fibers or orlistat were then added to the emulsion and the mixture was vortexed for 30 seconds.
In vivo simulated digestion was performed using a 3-phase (mouth, stomach, small intestine) method. Briefly, in the mouth phase of the gastrointestinal tract (GIT) simulator, the nano-enabled food was mixed with a simulated saliva fluid and incubated at 37° C. for 10 seconds. The resultant mouth digesta was then combined and incubated with a simulated gastric fluid and incubated for 2 hours at 37° C. on an orbital shaker to complete the stomach phase. […] Free fatty acid (FFA) at the beginning of the intestinal phase (before addition of lipase) and in the final digesta was measured using a fluorometric assay kit (Cayman Chemical Cat #700310). […]

SMILES: CCCCCCCCCCC[C@@H](C[C@@H]1OC(=O)[C@H]1CCCCCC)OC(=O)[C@H](CC(C)C)NC=O [orlistat]
- reduction of lipase activity (NaOH titrant used, percentage of total free fatty acids released): 91.5%
